The supplement of paper PMC10307832

Columns and labels:
Test in all cases: relative viability (nuclei count vs DMSO), 5 days (fraction); higher = more cells survive
NCI-H2085 = test system: NCI-H2085
Procedure, shortened: (§1)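 For relative viability, nuclei counts in treated wells were divided by those in vehicle wells. Lung cancer cell lines had been pin-tool dosed in 1536-well plates the day after seeding and cultured for 5 days, then fixed and stained in one step (final 0.05% Triton X-100, 1% formaldehyde, 1 ug/ml Hoechst) and imaged at 4×. Doses were one drug alone or a fixed anchor-drug dose plus five library-drug doses (not always all listed) in √10 steps, and values are duplicate-plate medians.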

NCI-H460 = test system: NCI-H460
Procedure, shortened: as §1

NCI-H520 = test system: NCI-H520
Procedure, shortened: as §1

NCI-H1993 = test system: NCI-H1993
Procedure, shortened: as §1

LK-2 = test system: LK-2
Procedure, shortened: as §1

ChaGo-K-1 = test system: ChaGo-K-1
Procedure, shortened: as §1

NCI-H1355 = test system: NCI-H1355
Procedure, shortened: as §1

SK-LU-1 = test system: SK-LU-1
Procedure, shortened: as §1

NCI-H838 = test system: NCI-H838
Procedure, shortened: as §1

LCLC-97TM1 = test system: LCLC-97TM1
Procedure, shortened: as §1

NCI-H2405 = test system: NCI-H2405
Procedure, shortened: as §1

201T = test system: 201T
Procedure, shortened: as §1

HCC-15 = test system: HCC-15
Procedure, shortened: as §1

NCI-H3122 = test system: NCI-H3122
Procedure, shortened: as §1

HCC-78 = test system: HCC-78
Procedure, shortened: as §1

HARA = test system: HARA
Procedure, shortened: as §1

HCC-366 = test system: HCC-366
Procedure, shortened: as §1

COR-L23 = test system: COR-L23
Procedure, shortened: as §1

NCI-H1734 = test system: NCI-H1734
Procedure, shortened: as §1

LOU-NH91 = test system: LOU-NH91
Procedure, shortened: as §1

NCI-H1975 = test system: NCI-H1975
Procedure, shortened: as §1

NCI-H1650 = test system: NCI-H1650
Procedure, shortened: as §1

Oc1nc(-c2ccc(C(F)(F)F)cc2)nc2c1CSCC2 [XAV939] + O=C(CCCCCCC(=O)Nc1ccccc1)NO [Vorinostat] (partner 1 µM)
relative viability (NCI-H2085; first compound 0.08 µM): 0.741
relative viability (NCI-H2085; first compound 0.253 µM): 0.736
relative viability (NCI-H2085; first compound 0.8 µM): 0.789
relative viability (NCI-H2085; first compound 2.53 µM): 0.716
relative viability (NCI-H460; first compound 0.08 µM): 0.943
relative viability (NCI-H460; first compound 0.253 µM): 0.46
relative viability (NCI-H460; first compound 0.8 µM): 0.649
relative viability (NCI-H460; first compound 2.53 µM): 0.433
relative viability (NCI-H520; first compound 0.08 µM): 0.722
relative viability (NCI-H520; first compound 0.8 µM): 0.747
relative viability (NCI-H520; first compound 2.53 µM): 0.717
relative viability (NCI-H1993; first compound 0.08 µM): 0.635
relative viability (NCI-H1993; first compound 0.253 µM): 0.625
relative viability (NCI-H1993; first compound 0.8 µM): 0.691
relative viability (NCI-H1993; first compound 2.53 µM): 0.789
relative viability (LK-2; first compound 0.08 µM): 0.371
relative viability (LK-2; first compound 0.253 µM): 0.325
relative viability (LK-2; first compound 0.8 µM): 0.251
relative viability (LK-2; first compound 2.53 µM): 0.24
relative viability (ChaGo-K-1; first compound 0.08 µM): 0.751
relative viability (ChaGo-K-1; first compound 0.253 µM): 0.707
relative viability (ChaGo-K-1; first compound 0.8 µM): 0.747
relative viability (ChaGo-K-1; first compound 2.53 µM): 0.643
relative viability (NCI-H1355; first compound 0.08 µM): 0.688
relative viability (NCI-H1355; first compound 0.253 µM): 0.546
relative viability (NCI-H1355; first compound 0.8 µM): 0.552
relative viability (NCI-H1355; first compound 2.53 µM): 0.445
relative viability (SK-LU-1; first compound 0.08 µM): 0.872
relative viability (SK-LU-1; first compound 0.253 µM): 0.755
relative viability (SK-LU-1; first compound 0.8 µM): 0.892
relative viability (SK-LU-1; first compound 2.53 µM): 0.87
relative viability (NCI-H838; first compound 0.08 µM): 0.685
relative viability (NCI-H838; first compound 0.253 µM): 0.609
relative viability (NCI-H838; first compound 0.8 µM): 0.658
relative viability (NCI-H838; first compound 2.53 µM): 0.558
relative viability (LCLC-97TM1; first compound 0.08 µM): 1.05
relative viability (LCLC-97TM1; first compound 0.253 µM): 0.686
relative viability (LCLC-97TM1; first compound 2.53 µM): 0.449
relative viability (NCI-H2405; first compound 0.08 µM): 0.639
relative viability (NCI-H2405; first compound 0.253 µM): 0.922
relative viability (NCI-H2405; first compound 0.8 µM): 0.913
relative viability (NCI-H2405; first compound 2.53 µM): 0.925
relative viability (201T; first compound 0.08 µM): 1.07
relative viability (201T; first compound 0.253 µM): 0.794
relative viability (201T; first compound 0.8 µM): 0.832
relative viability (201T; first compound 2.53 µM): 0.779
relative viability (HCC-15; first compound 0.08 µM): 0.824
relative viability (HCC-15; first compound 0.253 µM): 0.742
relative viability (HCC-15; first compound 0.8 µM): 0.837
relative viability (HCC-15; first compound 2.53 µM): 0.692
relative viability (NCI-H3122; first compound 0.08 µM): 1.03
relative viability (NCI-H3122; first compound 0.253 µM): 0.401
relative viability (NCI-H3122; first compound 0.8 µM): 0.904
relative viability (NCI-H3122; first compound 2.53 µM): 0.997
relative viability (HCC-78; first compound 0.08 µM): 0.526
relative viability (HCC-78; first compound 0.253 µM): 0.453
relative viability (HCC-78; first compound 0.8 µM): 0.443
relative viability (HCC-78; first compound 2.53 µM): 0.415
relative viability (HARA; first compound 0.08 µM): 0.529
relative viability (HARA; first compound 0.253 µM): 0.511
relative viability (HARA; first compound 0.8 µM): 0.648
relative viability (HARA; first compound 2.53 µM): 0.535
relative viability (HCC-366; first compound 0.08 µM): 0.398
relative viability (HCC-366; first compound 0.253 µM): 0.25
relative viability (HCC-366; first compound 0.8 µM): 0.293
relative viability (HCC-366; first compound 2.53 µM): 0.189
relative viability (COR-L23; first compound 0.08 µM): 0.443
relative viability (COR-L23; first compound 0.253 µM): 0.472
relative viability (COR-L23; first compound 0.8 µM): 0.483
relative viability (COR-L23; first compound 2.53 µM): 0.39
relative viability (NCI-H1734; first compound 0.08 µM): 0.98
relative viability (NCI-H1734; first compound 0.253 µM): 0.835
relative viability (NCI-H1734; first compound 0.8 µM): 0.757
relative viability (NCI-H1734; first compound 2.53 µM): 0.803
relative viability (LOU-NH91; first compound 0.08 µM): 0.952
relative viability (LOU-NH91; first compound 0.253 µM): 0.813
relative viability (LOU-NH91; first compound 0.8 µM): 0.88
relative viability (LOU-NH91; first compound 2.53 µM): 0.937
relative viability (NCI-H1975; first compound 0.08 µM): 0.784
relative viability (NCI-H1975; first compound 0.253 µM): 0.588
relative viability (NCI-H1975; first compound 0.8 µM): 0.673
relative viability (NCI-H1975; first compound 2.53 µM): 0.667
relative viability (NCI-H1650; first compound 0.08 µM): 0.909
relative viability (NCI-H1650; first compound 0.253 µM): 0.524
relative viability (NCI-H1650; first compound 0.8 µM): 0.391
relative viability (NCI-H1650; first compound 2.53 µM): 0.525
